Assay results from ChEMBL document CHEMBL3832034.
Values joined by “and” are separate entries in the source; they are usually repeats but may differ in a detail not shown here. Identical values can stand only once.

Tests used:
Type in all cases: ADME, organism-based
Homo sapiens = assay: (§1) Pharmacokinetic parameters for Lidocaine, and Prilocaine after topical administration of EMLA cream intact skin on the lateral thighs, vaginal fornices and penile skin of subjects; design: dose 1.5 g, route topical; settings: in vivo, topical_or_ocular; for C / Tmax: route topical
[1] = as §1; design: dose 1.5 g, route topical; settings: human, in vivo, topical or ocular, 1.5 g; dosed compound id 50, dosed compound name PRILOCAINE, regimen Single dose, study dosing duration 3 hours, tissue Plasma
[2] = Evaluation of pharmacokinetic parameters for Lidocaine, and Prilocaine following intravenous (IV) administration of Lidocaine or application of a cream.; settings: human, dosed compound id 50, dosed compound name PRILOCAINE, tissue Plasma
[3] = dose 0.5 to 3.3 g, dosed compound id 50, dosed compound name PRILOCAINE, gender female, regimen Single dose, study dosing duration 10 to 60 minutes, tissue Plasma

SMILES | Cmax (Homo sapiens) | Cmax [1] [ng/mL] | C (Homo sapiens; [3]) [ng/mL] | Tmax (Homo sapiens; [3]) [h] | C (Homo sapiens; dose 0.5 to 3.3 g, dosed compound id 50, dosed compound name PRILOCAINE, gender male, regimen Single dose, study dosing duration 15 minutes, tissue Plasma) [ng/mL] | Tmax (Homo sapiens; dose 1.5 g, dosed compound id 50, dosed compound name PRILOCAINE, regimen Single dose, study dosing duration 3 hours, tissue Plasma) [h] | Tmax (Homo sapiens; dose 1.5 g, dosed compound id 50, dosed compound name PRILOCAINE, regimen Single dose, study dosing duration 24 hours, tissue Plasma) [h] | Cmax (Homo sapiens; dosed compound id 50, dosed compound name PRILOCAINE, regimen Single dose, study dosing duration 24 hours, tissue Plasma) [ng/mL] | clearance ([2]; in vivo, route iv) [mL/min/kg] | half-life ([2]; in vivo, route iv) [h] | Vd ([2]; in vivo, route iv, read-out: Vss) [L/kg] | fraction unbound ([2]; topical or ocular, route topical, read-out: Protein binding (converted))
CCN(CC)CC(=O)Nc1c(C)cccc1C [LIDOCAINE] | 120 ng/mL and 280 ng/mL | – | – | – | – | – | – | – | – | – | – | –
CCCNC(C)C(=O)Nc1ccccc1C (configuration not stated) [PRILOCAINE] | – | 70 | 40 to 346 | 0.35 to 1.58 | 2.5 to 7 | 4 | 10 | 140 | 38 | 1.17 | 2.6 | 0.45
